Columns and labels:
[1] = test system: Dopamin; assay: Determination of dopamine in blood plasma of patients after administration (method of G. Weth); assay type: in vivo, Patienten; conditions: for Dopamin MW: 25 mg Captopril, mean of 12 patients, value at time 0: 110
Text: (§1) Die Dopaminbestimmung wurde nach G. Weth, "Das Verhalten der Neurotransmitter....", Dissertation, Würzburg, 1987, S. 123-138, durchgeführt. Die Bestimmung von Prolaktin wurde radioimmunologisch nach den Methoden von P. Hwang, H. Guyda, H. Friesen, Proc. Nat. Sci. (USA) 1971, 68/8, S.1902-06 durchgeführt.
(§2) Für die Untersuchungen wurden 2x12 Patienten (Alter 75±10 Jahre), die unter Durchblutungsstörungen, sowohl peripheren als auch zentralen, litten, herangezogen. […]
Die Bestimmung der Dopamin- und Prolaktinwerte wurde wie folgt vorgenommen. In angegebenen Zeitabschnitten von 15, 30, 60 und 120 Minuten wurden dem Patienten je 5 ml Blut entnommen und in speziell präparierte Vakuum-Container, die Glutathion und EDTA enthielten, gegeben. Das Blut wurde sofort auf 2 °C abgekühlt und bei 2 °C zentrifugiert. Das überstehende Blutplasma wurde bis zur Dopamin- und Prolaktinbestimmung bei minus 80 °C tiefgefroren.
(§3) In den Tabellen sind die Ergebnisse der vorstehend angeführten pharmakologischen Untersuchungen zusammengestellt. Die Dimensionsangaben betragen für Dopamin pg/ml bzw. ng/l und für Prolaktin ng/ml.

[2] = test system: Prolaktin; assay: Radioimmunological determination of prolactin in blood plasma of patients after administration; assay type: in vivo, Patienten; conditions: for Prolaktin MW: 25 mg Captopril, mean of 12 patients; for Prolaktinsenkung (Effekt): Fig. 2, result in words
Text: as §1, §2
Die Bestimmung der Dopamin- und Prolaktinwerte wurde wie folgt vorgenommen. […] Das Blut wurde sofort auf 2 °C abgekühlt und bei 2 °C zentrifugiert. Das überstehende Blutplasma wurde bis zur Dopamin- und Prolaktinbestimmung bei minus 80 °C tiefgefroren.
as §3

SMILES: C[C@H](CS)C(=O)N1CCC[C@H]1C(=O)O [Captopril]
- Höhepunkt des Anstiegs von Dopamin (time) ([1]; 25 mg Captopril oral per patient (mean weight 60 kg), Fig. 1): ~60 min
- Dopamin MW ([1]; 15 min after dosing): 163 pg/mL
- Dopamin MW ([1]; 30 min after dosing): 210 pg/mL
- Dopamin MW ([1]; 60 min after dosing): 291 pg/mL
- Dopamin MW ([1]; 90 min after dosing): 250 pg/mL
- Dopamin MW ([1]; 120 min after dosing): 211 pg/mL
- Maximum der Dopaminfreisetzung (time) ([1]; 12,5 mg Captopril, Fig. 3): 60 min
- Anstieg von Dopamin ([1]; 15 min after 25 mg Captopril oral per patient (mean weight 60 kg), Fig. 1, result in words): signifikanten Anstieg
- Anstieg von Dopamin ([1]; 30 min after 25 mg Captopril, result in words): hochsignifikanten Anstieg
- Anstieg (Dopaminfreisetzung) ([1]; 30 min after 12,5 mg Captopril, Fig. 3, result in words): signifikant
- Prolaktin MW ([2]; 15 min after dosing, value at time 0: 14,3): 13,6 ng/ml
- Prolaktin MW ([2]; 30 min after dosing, value at time 0: 14,8): 12,3 ng/ml
- Prolaktin MW ([2]; 60 min after dosing, value at time 0: 14,8): 9,0 ng/ml
- Prolaktin MW ([2]; 90 min after dosing, value at time 0: 14,8): 8,4 ng/ml
- Prolaktin MW ([2]; 120 min after dosing, value at time 0: 14,8): 7,9 ng/ml
- Prolaktinsenkung (Effekt) ([2]; 15 min after 25 mg Captopril oral per patient (mean weight 60 kg)): signifikanter
- Prolaktinsenkung (Effekt) ([2]; 60 min after 25 mg Captopril oral per patient (mean weight 60 kg)): hochsignifikanter

Source: patent EP0498899A1, “Use of N-(mercaptoacyl)-amino acids as dopaminergic und gonadoptropic medicaments” (Weth, Gosbert Dr. med., Dr. rer. nat., priority 1990, dated 1992)
